In patent US20080170998A1 (priority 2005, published 2008):

How the values were obtained:
[1] = tested on: Porphyromonas gingivalis ATCC 33277 strain; assay type: cell-based; details: 0.1 mg/mL, 1 mg/mL, 10 mg/mL
[2] = tested on: Prevotella nigrescens ATCC 25261 strain; details: O.D.660 nm after 24 hours and 48 hours, FIG. 4
[3] = tested on: Treponema denticola ATCC 33520 strain; test: Growth of periodontopathic bacteria in pRH-containing medium (turbidity O.D.660 nm); assay type: cell-based; details: 500 μg/mL, FIG. 9
Method: (§1) Each of the above cryopreserved strains was anaerobically cultivated at 35° C. for 48 hours by using TSB medium to which yeast extract (1 g/L), hemin ([…]), and menadione (1 mg/L) were added to provide a precultured bacterial culture.

[4] = tested on: Fusobacterium nucleatum ATCC 23726 strain, ATCC 25586 strain; test: as above; assay type: cell-based; details: 500 μg/mL; ATCC 23726 and ATCC 25586 strains; FIGS. 7, 8
Method: as §1

[5] = tested on: Porphyromonas gingivalis ATCC 33277 strain, W50 strain; test: as above; assay type: cell-based; details: 500 μg/mL; ATCC 33277 and W50 strains; FIGS. 1, 2
Method: as §1

[6] = tested on: Actinobacillus actinomycetemcomitans ATCC 29523 stain, Y4 strain; test: as above; assay type: cell-based; details: 500 μg/mL; ATCC 29523 and Y4 strains; FIGS. 5, 6
Method: as §1

[7] = tested on: Prevotella intermedia ATCC 49046 strain; test: as above; assay type: cell-based; details: 500 μg/mL, FIG. 3
Method: as §1

[8] = tested on: Porphyromonas gingivalis ATCC 33277 strain and Streptococcus oralis ATCC 9811 strain; details: pRH solution 2.5 mg/mL; PBS pH 6.0, 37° C.; FIG. 13
[9] = tested on: arginine-specific protease (Arg-gingipain; RGP); test: Protease inhibition, fluorogenic substrate Bz-Arg-methylcoumarinamide, culture supernatant; assay type: biochemical, Porphyromonas gingivalis; details: substrate 100 μM, 15 minutes room temperature
Method: Enzyme activity inhibitions of an arginine-specific protease (Arg-gingipain; hereinafter, referred to as “RGP”) and lysin-specific protease (Lys-gingipain; hereinafter, referred to as “KGP”) as dominant virulence factor for Porphyromonas gingivalis were examined.
The reaction was stopped by adding 2 mM TLCK, and released methyl-coumarin-amide was measured by means of spectrophotofluorometer (excitation wavelength: 380 nm, fluorescence wavelength: 460 nm).
Furthermore, an inhibition rate was defined according to the Equation (1):
Inhibition rate(%)=(Blank fluorescence intensity−Sample fluorescence intensity)÷Blank fluorescence intensity×100 (1)
Blank fluorescence intensity indicates fluorescence intensity upon reaction without adding pRH. Sample fluorescence intensity indicates fluorescence intensity upon reaction with adding pRH.

Substance | inhibition of the absorption (adhesion) of Porphyromonas gingivalis for sHA [1] | concentration at which a growth inhibitory effect was observed [2] [µg/mL] | growth inhibitory effect [3] | growth inhibitory effect [4] | growth inhibitory effect [5] | growth inhibitory effect [6] | growth inhibitory effect [7] | aggregation inhibitory activity (inhibition rate of coaggregation) [8] [%] | inhibition rate for RGP ([9]; pRH at 100 μg/mL) [%] | inhibition rate for RGP ([9]; pRH at 1000 μg/mL) [%]
polyarginyl histidine [pRH] | obviously inhibited | ≥ 100 | not observed | not observed | not observed | not observed | not observed | 33 | 0.2 | 7.7
polylysine [reference compound] | did not inhibit | – | – | – | – | – | – | – | – | –
